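Compound exposure: 48 hours, 5 concentrations, 96-well plates. GI50 is the concentration that inhibits growth by half. TGI is the concentration that stops growth completely.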
Columns and labels:
Test in all cases: inhibition of tumour cell growth, NCI panel, 48 h; in the data active means GI50 below about 0.43 µM; inactive means the rest
CCRF-CEM leukemia = test system: CCRF-CEM leukemia
NCI-H23 lung = test system: NCI-H23 lung
NCI/ADR-RES ovarian = test system: NCI/ADR-RES ovarian
HCC-2998 colon = test system: HCC-2998 colon
TK-10 renal = test system: TK-10 renal
SK-MEL-5 melanoma = test system: SK-MEL-5 melanoma
SK-MEL-28 melanoma = test system: SK-MEL-28 melanoma
HCT-116 colon = test system: HCT-116 colon
HOP-62 NSCLC = test system: HOP-62 NSCLC
SF-268 CNS = test system: SF-268 CNS
MOLT-4 leukemia = test system: MOLT-4 leukemia
SF-295 CNS = test system: SF-295 CNS
MALME-3M melanoma = test system: MALME-3M melanoma
OVCAR-8 ovarian = test system: OVCAR-8 ovarian
OVCAR-5 ovarian = test system: OVCAR-5 ovarian
UO-31 renal = test system: UO-31 renal
EKVX NSCLC = test system: EKVX NSCLC
A498 renal = test system: A498 renal
COLO 205 colon = test system: COLO 205 colon
ACHN renal = test system: ACHN renal
MCF7 breast = test system: MCF7 breast
SK-MEL-2 melanoma = test system: SK-MEL-2 melanoma
IGROV1 ovarian = test system: IGROV1 ovarian
LOX IMVI melanoma = test system: LOX IMVI melanoma
SNB-19 CNS = test system: SNB-19 CNS
KM12 colon = test system: KM12 colon
OVCAR-4 ovarian = test system: OVCAR-4 ovarian
MDA-MB-435 = test system: MDA-MB-435
HS 578T breast = test system: HS 578T breast
OVCAR-3 ovarian = test system: OVCAR-3 ovarian
HT29 colon = test system: HT29 colon
HL-60(TB) leukemia = test system: HL-60(TB) leukemia
786-0 renal = test system: 786-0 renal
HCT-15 colon = test system: HCT-15 colon
NCI-H226 lung = test system: NCI-H226 lung
HOP-92 NSCLC = test system: HOP-92 NSCLC
K-562 leukemia = test system: K-562 leukemia
MDA-MB-231 breast = test system: MDA-MB-231 breast
SF-539 CNS = test system: SF-539 CNS
SN12C renal = test system: SN12C renal
A549 NSCLC = test system: A549 NSCLC
UACC-62 melanoma = test system: UACC-62 melanoma
UACC-257 melanoma = test system: UACC-257 melanoma
CAKI-1 renal = test system: CAKI-1 renal
NCI-H522 lung = test system: NCI-H522 lung
SNB-75 CNS = test system: SNB-75 CNS
PC-3 prostate = test system: PC-3 prostate
SK-OV-3 ovarian = test system: SK-OV-3 ovarian
SR leukemia = test system: SR leukemia
T-47D breast = test system: T-47D breast
DU-145 prostate = test system: DU-145 prostate
SW-620 colon = test system: SW-620 colon
RPMI-8226 leukemia = test system: RPMI-8226 leukemia
NCI-H460 lung = test system: NCI-H460 lung
M14 melanoma = test system: M14 melanoma
BT-549 breast = test system: BT-549 breast
RXF 393 renal = test system: RXF 393 renal
U251 CNS = test system: U251 CNS

N/C(=N\C(N)=N\c1nc2ccccc2s1)c1ccnc(Br)c1
48.9 µM: TGI (U251 CNS)
> 100 µM: TGI (CCRF-CEM leukemia) | TGI (NCI-H23 lung) | TGI (HCC-2998 colon) | TGI (TK-10 renal) | TGI (SK-MEL-5 melanoma) | TGI (SK-MEL-28 melanoma) | TGI (HCT-116 colon) | TGI (SF-268 CNS) | TGI (MOLT-4 leukemia) | TGI (SF-295 CNS) | TGI (MALME-3M melanoma) | TGI (OVCAR-8 ovarian) | TGI (OVCAR-5 ovarian) | TGI (EKVX NSCLC) | TGI (COLO 205 colon) | TGI (ACHN renal) | TGI (MCF7 breast) | TGI (SK-MEL-2 melanoma) | TGI (IGROV1 ovarian) | TGI (LOX IMVI melanoma) | TGI (SNB-19 CNS) | TGI (KM12 colon) | TGI (OVCAR-4 ovarian) | TGI (HT29 colon) | TGI (HL-60(TB) leukemia) | TGI (786-0 renal) | TGI (HCT-15 colon) | TGI (NCI-H226 lung) | TGI (HOP-92 NSCLC) | TGI (K-562 leukemia) | TGI (MDA-MB-231 breast) | TGI (SN12C renal) | TGI (A549 NSCLC) | TGI (UACC-62 melanoma) | TGI (UACC-257 melanoma) | TGI (CAKI-1 renal) | TGI (NCI-H522 lung) | TGI (PC-3 prostate) | TGI (SK-OV-3 ovarian) | TGI (SR leukemia) | TGI (T-47D breast) | TGI (DU-145 prostate) | TGI (SW-620 colon) | TGI (RPMI-8226 leukemia) | TGI (NCI-H460 lung) | TGI (M14 melanoma) | TGI (BT-549 breast)
41 µM: TGI (A498 renal)
7.32 µM: TGI (MDA-MB-435)
18.9 µM: TGI (OVCAR-3 ovarian)
7.95 µM: TGI (NCI/ADR-RES ovarian)
84 µM: TGI (UO-31 renal)
95 µM: TGI (SF-539 CNS)
46 µM: TGI (HS 578T breast)
inactive: GI50 (CCRF-CEM leukemia) 3.7 µM | GI50 (NCI-H23 lung) 14.2 µM | GI50 (NCI/ADR-RES ovarian) 2.62 µM | GI50 (HCC-2998 colon) 66 µM | GI50 (TK-10 renal) 52 µM | GI50 (SK-MEL-5 melanoma) 3.49 µM | GI50 (SK-MEL-28 melanoma) 8.7 µM | GI50 (HCT-116 colon) 3.28 µM | GI50 (HOP-62 NSCLC) 3.65 µM | GI50 (SF-268 CNS) 5.88 µM | GI50 (MOLT-4 leukemia) 4.35 µM | GI50 (SF-295 CNS) 4.25 µM | GI50 (MALME-3M melanoma) 6.22 µM | GI50 (OVCAR-8 ovarian) 10.3 µM | GI50 (OVCAR-5 ovarian) 62.3 µM | GI50 (UO-31 renal) 3.56 µM | GI50 (EKVX NSCLC) 30.4 µM | GI50 (A498 renal) 5.14 µM | GI50 (COLO 205 colon) 11 µM | GI50 (ACHN renal) 5.22 µM | GI50 (MCF7 breast) 5.49 µM | GI50 (SK-MEL-2 melanoma) 3.81 µM | GI50 (IGROV1 ovarian) 3.63 µM | GI50 (LOX IMVI melanoma) 4.27 µM | GI50 (SNB-19 CNS) 7.1 µM | GI50 (KM12 colon) 5.19 µM | GI50 (OVCAR-4 ovarian) 7.83 µM | GI50 (MDA-MB-435) 2.1 µM | GI50 (HS 578T breast) 3.76 µM | GI50 (OVCAR-3 ovarian) 3.46 µM | GI50 (HT29 colon) 3.55 µM | GI50 (HL-60(TB) leukemia) 3.02 µM | GI50 (786-0 renal) 5.88 µM | GI50 (HCT-15 colon) 3.92 µM | GI50 (NCI-H226 lung) 15.9 µM | GI50 (HOP-92 NSCLC) 7.02 µM | GI50 (K-562 leukemia) 3.46 µM | GI50 (MDA-MB-231 breast) 9.13 µM | GI50 (SF-539 CNS) 4.67 µM | GI50 (SN12C renal) 5.57 µM | GI50 (A549 NSCLC) 22.1 µM | GI50 (UACC-62 melanoma) 4.47 µM | GI50 (UACC-257 melanoma) > 100 µM | GI50 (CAKI-1 renal) 3.33 µM | GI50 (NCI-H522 lung) 3.22 µM | GI50 (SNB-75 CNS) 2.33 µM | GI50 (PC-3 prostate) 4.61 µM | GI50 (SK-OV-3 ovarian) 5.95 µM | GI50 (SR leukemia) 2.9 µM | GI50 (T-47D breast) 8.01 µM | GI50 (DU-145 prostate) 15.2 µM | GI50 (SW-620 colon) 3.91 µM | GI50 (RPMI-8226 leukemia) 4.29 µM | GI50 (NCI-H460 lung) 4.33 µM | GI50 (M14 melanoma) 3.39 µM | GI50 (BT-549 breast) 4.32 µM | GI50 (RXF 393 renal) 2.81 µM | GI50 (U251 CNS) 5.63 µM
57.2 µM: TGI (HOP-62 NSCLC)
27.1 µM: TGI (RXF 393 renal)
6.89 µM: TGI (SNB-75 CNS)

From PubChem BioAssay (NCI)
